# Assay results taken from US20240101546A1, “HETEROARYL-ACETYLENES, PHARMACEUTICAL COMPOSITIONS THEREOF, AND THEIR THERAPEUTIC APPLICATIONS” (Eubulus Biotherapeutics Inc., priority 2020, published 2024).
# Test system: lung cancer cell line NCI-H82
# Assay: Cell proliferation assay, NCI-H82 (CELL-TITER GLO)
# Type: cell-based
# Conditions: Homo sapiens, NCI-H82, 72 h, NCI-H82 cells, 72 h incubation, cell viability by CELL-TITER GLO, top concentration 1 μM; read-out: EC50, Inhibition of NCl-H82 Cell Proliferation
# How it was run: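 NCI-H82 cells, 1,000 per well in RPMI1640, were treated after overnight plating with a 3-fold dilution series from 1 μM. Viability read by CellTiter-Glo luminescence after 72 h. EC50 derived from the curves.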
row,Compound,EC50
1,"C#Cc1nc(NC(=O)N[C@@H](CO)C(=O)N2CCC3(CCCCC3)CC2)cs1 [Compound A157, (S)-1-(2-Ethynylthiazol-4-yl)-3-(3-hydroxy-1-oxo-1-(3-azaspiro[5.5]undecan-3-yl)propan-2-yl)urea]",≤ 200 nM
2,"C#Cc1nc(NC(=O)N[C@@H](CO)C(=O)N2CCC3(CC2)CCC(F)(F)CC3)cs1 [Compound A158, (S)-1-(1-(9,9-Difluoro-3-azaspiro[5.5]undecan-3-yl)-3-hydroxy-1-oxopropan-2-yl)-3-(2-ethynylthiazol-4-yl)urea]",≤ 200 nM
3,"C#Cc1nc(NC(=O)N[C@@H](CO)C(=O)N2CCC(N3CC(F)(F)C3)CC2)cs1 [Compound A159, (S)-1-(1-(4-(3,3-Difluoroazetidin-1-yl)piperidin-1-yl)-3-hydroxy-1-oxopropan-2-yl)-3-(2-ethynylthiazol-4-yl)urea]",> 5000 nM
4,"C#Cc1nc(NC(=O)N[C@H](CO)C(=O)N2CCC(N3CC(F)(F)C3)CC2)cs1 [Compound A160, (R)-1-(1-(4-(3,3-Difluoroazetidin-1-yl)piperidin-1-yl)-3-hydroxy-1-oxopropan-2-yl)-3-(2-ethynylthiazol-4-yl)urea]",200 to 1000 nM
5,"C#Cc1nc(NC(=O)N[C@@H](CO)C(=O)N2CCC(F)(F)CC2)cs1 [Compound A161, (S)-1-(1-(4,4-Difluoropiperidin-1-yl)-3-hydroxy-1-oxopropan-2-yl)-3-(2-ethynyl-thiazol-4-yl)urea]",≤ 200 nM
6,"C#Cc1nc(NC(=O)Nc2ncnc3c(F)c(-c4c(F)cccc4OC)c(Cl)cc23)cs1 [Compound A162, 1-(6-Chloro-8-fluoro-7-(2-fluoro-6-methoxyphenyl)quinazolin-4-yl)-3-(2-ethynylthiazol-4-yl)urea]",≤ 200 nM
7,"C#Cc1nc(NC(=O)Nc2ncnc3cc(-c4c(O)cccc4F)ccc23)cs1 [Compound A163, 1-(2-Ethynylthiazol-4-yl)-3-(7-(2-fluoro-6-hydroxyphenyl)quinazolin-4-yl)urea]",≤ 200 nM
8,"C#Cc1nc(NC(=O)Nc2ncnc3c(F)c(-c4cccc5ncsc45)c(Cl)cc23)cs1 [Compound A165, 1-(7-(Benzo[d]thiazol-7-yl)-6-chloro-8-fluoroquinazolin-4-yl)-3-(2-ethynyl-thiazol-4-yl)urea]",≤ 200 nM
9,"C#Cc1nc(NC(=O)Nc2ncnc3cc(-c4cccnc4C4(C#N)CC4)ccc23)cs1 [Compound A166, 1-(7-(2-(1-Cyanocyclopropyl)pyridin-3-yl)quinazolin-4-yl)-3-(2-ethynylthiazol-4-yl)urea]",≤ 200 nM
10,"C#Cc1nc(NC(=O)NCc2ccc(-c3cccc(C4(C#N)CC4)c3)cc2)cs1 [Compound A167, 1-((3′-(1-Cyanocyclopropyl)-[1,1′-biphenyl]-4-yl)methyl)-3-(2-ethynylthiazol-4-yl)urea]",≤ 200 nM
11,"C#Cc1nc(NC(=O)NCc2ccc(-c3cccc(C4(O)CC4)c3)cc2)cs1 [Compound A168, 1-(2-Ethynylthiazol-4-yl)-3-((3′-(1-hydroxycyclopropyl)-[1,1′-biphenyl]-4-yl)methyl)urea]",≤ 200 nM
12,"C#Cc1nc(NC(=O)NCc2ccc(-c3cccc(C(=O)CC)c3)cc2)cs1 [Compound A169, 1-(2-Ethynylthiazol-4-yl)-3-((3′-propionyl-[1,1′-biphenyl]-4-yl)methyl)urea]",≤ 200 nM
13,"C#Cc1nc(NC(=O)NCc2ccc(-c3cccc(C4(O)CCC4)c3)cc2)cs1 [Compound A170, 1-(2-Ethynylthiazol-4-yl)-3-((3′-(1-hydroxycyclobutyl)-[1,1′-biphenyl]-4-yl)-methyl)urea]",≤ 200 nM
14,"C#Cc1nc(NC(=O)NCc2ccc(-c3cccc4nc(N5CC(F)(F)C5)nc(O)c34)cc2)cs1 [Compound A171, 1-(4-(2-(3,3-Difluoroazetidin-1-yl)-4-hydroxyquinazolin-5-yl)benzyl)-3-(2-ethynylthiazol-4-yl)urea]",≤ 200 nM
15,"C#Cc1nc(NC(=O)NCc2ccc(-c3cccc4nc(OCCO)nc(O)c34)cc2)cs1 [Compound A172, 1-(2-Ethynylthiazol-4-yl)-3-(4-(4-hydroxy-2-(2-hydroxyethoxy)quinazolin-5-yl)-benzyl)urea]",≤ 200 nM
16,"C#Cc1nc(NC(=O)NCc2ccc(-c3cc(N4CCCC4)ccn3)cc2)cs1 [Compound A173, 1-(2-Ethynylthiazol-4-yl)-3-(4-(4-(pyrrolidin-1-yl)pyridin-2-yl)benzyl)urea]",200 to 1000 nM
17,"C#Cc1nc(NC(=O)NCc2ccc(-c3cncc(N4CCCC4)c3)cc2)cs1 [Compound A174, 1-(2-Ethynylthiazol-4-yl)-3-(4-(5-(pyrrolidin-1-yl)pyridin-3-yl)benzyl)urea]",≤ 200 nM
18,"C#Cc1nc(NC(=O)NCc2ccc(-c3ccnc(N4CCCC4)c3)cc2)cs1 [Compound A175, 1-(2-Ethynylthiazol-4-yl)-3-(4-(2-(pyrrolidin-1-yl)pyridin-4-yl)benzyl)urea]",≤ 200 nM

row,Compound,EC50
1,"C#Cc1nc(NC(=O)NCc2ccc(-c3cccc(N4CCCC4)n3)cc2)cs1 [Compound A176, 1-(2-Ethynylthiazol-4-yl)-3-(4-(6-(pyrrolidin-1-yl)pyridin-2-yl)benzyl)urea]",≤ 200 nM
2,"C#Cc1nc(NC(=O)NCc2ccc(-c3cccc4ncsc34)cc2C#N)cs1 [Compound A177, 1-(4-(Benzo[d]thiazol-7-yl)-2-cyanobenzyl)-3-(2-ethynylthiazol-4-yl)urea]",200 to 1000 nM
3,"C#Cc1nc(NC(=O)NCc2ccc(-c3cccc4ncsc34)cn2)cs1 [Compound A179, 1-((5-(Benzo[d]thiazol-7-yl)pyridin-2-yl)methyl)-3-(2-ethynylthiazol-4-yl)urea]",≤ 200 nM
4,"C#Cc1nc(NC(=O)NCc2ccc(-c3cccc(C4(C#N)CC4)c3)nc2)cs1 [Compound A180, 1-((6-(3-(1-Cyanocyclopropyl)phenyl)pyridin-3-yl)methyl)-3-(2-ethynylthiazol-4-yl)urea]",≤ 200 nM
5,"C#Cc1nc(NC(=O)N[C@@H](CO)c2ccc(-c3cccc(N4CCC(F)(F)C4)c3)cc2)cs1 [Compound A181, (R)-1-(1-(3′-(3,3-Difluoropyrrolidin-1-yl)-[1,1′-biphenyl]-4-yl)-2-hydroxyethyl)-3-(2-ethynylthiazol-4-yl)urea]",≤ 200 nM
6,"C#Cc1nc(NC(=O)N[C@@H](CO)c2ccc(C3CCCCC3)cc2)cs1 [Compound A182, (R)-1-(1-(4-Cyclohexylphenyl)-2-hydroxyethyl)-3-(2-ethynylthiazol-4-yl)urea]",≤ 200 nM
7,"C#Cc1nc(NC(=O)N[C@@H](CO)c2ccc(C3=CCCCC3)cc2)cs1 [Compound A183, (R)-1-(2-Ethynylthiazol-4-yl)-3-(2-hydroxy-1-(2′,3′,4′,5′-tetrahydro-[1,1′-biphenyl]-4-yl)ethyl)urea]",≤ 200 nM
8,"C#Cc1nc(NC(=O)N[C@@H](CO)c2ccc(C3CCN(C)CC3)cc2)cs1 [Compound A184, (R)-1-(2-Ethynylthiazol-4-yl)-3-(2-hydroxy-1-(4-(1-methylpiperidin-4-yl)phenyl)-ethyl)urea]",200 to 1000 nM
9,"C#Cc1nc(NC(=O)N[C@@H](CO)c2ccc(C3=CCN(C)CC3)cc2)cs1 [Compound A185, (R)-1-(2-Ethynylthiazol-4-yl)-3-(2-hydroxy-1-(4-(1-methyl-1,2,3,6-tetrahydro-pyridin-4-yl)phenyl)ethyl)urea]",200 to 1000 nM
10,"C#Cc1nc(NC(=O)N[C@@H](CO)c2ccc(-c3cccc(S(C)(=O)=O)c3)cc2)cs1 [Compound A186, (R)-1-(2-Ethynylthiazol-4-yl)-3-(2-hydroxy-1-(3′-(methylsulfonyl)-[1,1′-biphenyl]-4-yl)ethyl)urea]",≤ 200 nM
11,"C#Cc1nc(NC(=O)N[C@@H](CO)c2ccc(-c3cccc(C4(C#N)CC4)c3)cc2)cs1 [Compound A187, (R)-1-(1-(3′-(1-Cyanocyclopropyl)-[1,1′-biphenyl]-4-yl)-2-hydroxyethyl)-3-(2-ethynylthiazol-4-yl)urea]",≤ 200 nM
12,"C#Cc1nc(NC(=O)N[C@@H](CO)c2ccc(-c3cccc(C4CC4(F)F)c3)cc2)cs1 (stereo partly drawn) [Compound A188, 1-((1R)-1-(3′-(2,2-Difluorocyclopropyl)-[1,1′-biphenyl]-4-yl)-2-hydroxyethyl)-3-(2-ethynylthiazol-4-yl)urea]",≤ 200 nM
13,"C#Cc1nc(NC(=O)N[C@@H](CO)c2ccc(-c3cccc(C4(O)CCC4)c3)cc2)cs1 [Compound A189, (R)-1-(2-Ethynylthiazol-4-yl)-3-(2-hydroxy-1-(3′-(1-hydroxycyclobutyl)-[1,1′-biphenyl]-4-yl)ethyl)urea]",≤ 200 nM
14,"C#Cc1nc(NC(=O)N[C@@H](CO)c2ccc(-c3cccc(N4CCC4)c3)cc2)cs1 [Compound A190, (R)-1-(1-(3′-(Azetidin-1-yl)-[1,1′-biphenyl]-4-yl)-2-hydroxyethyl)-3-(2-ethynyl-thiazol-4-yl)urea]",≤ 200 nM
15,"C#Cc1nc(NC(=O)N[C@@H](CO)c2ccc(-c3cccc(N4CC(F)(F)C4)c3)cc2)cs1 [Compound A191, (R)-1-(1-(3′-(3,3-Difluoroazetidin-1-yl)-[1,1′-biphenyl]-4-yl)-2-hydroxyethyl)-3-(2-ethynylthiazol-4-yl)urea]",≤ 200 nM
16,"C#Cc1nc(NC(=O)N[C@@H](CO)c2ccc(C3CCCN(C)C3)cc2)cs1 (stereo partly drawn) [Compound A192, 1-(2-Ethynylthiazol-4-yl)-3-((1R)-2-hydroxy-1-(4-(1-methylpiperidin-3-yl)-phenyl)ethyl)urea]",200 to 1000 nM
17,"C#Cc1nc(NC(=O)N[C@@H](CO)c2ccc(C3=CCCN(C)C3)cc2)cs1 [Compound A193, (R)-1-(2-Ethynylthiazol-4-yl)-3-(2-hydroxy-1-(4-(1-methyl-1,2,5,6-tetrahydro-pyridin-3-yl)phenyl)ethyl)urea]",200 to 1000 nM

# Same assay, conditions: NCI-H82 cells, 72 h incubation, cell viability by CELL-TITER GLO, top concentration 1 μM; read-out: EC50, Inhibition of NCl-H82 Cell Proliferation
row,Compound,EC50
1,"C#Cc1nc(NC(=O)NCc2ccc(-c3cccc4ncsc34)cc2C#N)cs1 [Compound A178, 1-(4-(Benzo[d]thiazol-7-yl)-2-cyanobenzyl)-3-(2-ethynylthiazol-4-yl)urea]",≤ 200 nM
